Measurements reported in patent US11414432B2, “Condensed bicyclic heterocyclic derivatives as pest control agents” (Bayer Aktiengesellschaft, priority 2018, dated 2022).

Key:
[1] = system: Meloidogyne incognita; assay: Meloidogyne incognita test; type: in vivo; settings: lettuce in sand, egg/larvae suspension, 20 ppm, after 14 days
Experimental: Meloidogyne incognita Test Solvent: 125.0 parts by weight of acetone To produce a suitable active compound formulation, 1 part by weight of active compound is mixed with the stated amount of solvent and the concentrate is diluted to the desired concentration with water. Vessels are filled with sand, active compound solution, an egg/larvae suspension of the southern root-knot nematode (Meloidogyne incognita) and lettuce seeds. The lettuce seeds germinate and the plants develop. The galls develop on the roots. After 14 days, the nematicidal efficacy in % is determined by the formation of galls. 100% means that no galls were found; 0% means that the number of galls on the treated plants corresponds to the untreated control.

[2] = system: Myzus persicae; assay: Myzus persicae oral test; type: in vivo; settings: mixed population, oral through parafilm, 4 ppm, after 5 days
Experimental: Myzus persicae—Oral Test Solvent: 100 parts by weight of acetone To produce a suitable preparation of active compound, 1 part by weight of active compound is dissolved using the specified parts by weight of solvent and made up with water until the desired concentration is attained. 50 μl of the active compound preparation are transferred into microtitre plates and made up to a final volume of 200 μl with 150 μl of IPL41 insect medium (33%+15% sugar). Subsequently, the plates are sealed with parafilm, which a mixed population of green peach aphids (Myzus persicae) within a second microtitre plate is able to puncture and imbibe the solution through. After 5 days, the efficacy in % is determined. 100% means that all the aphids have been killed; 0% means that no aphids have been killed.

[3] = log P by HPLC on reversed-phase column (C18), acidic range; type: physicochemical; settings: formic acid in water/acetonitrile, LC-UV
Experimental: The log P values were determined according to EEC Directive 79/831 Annex V.A8 by HPLC (high-performance liquid chromatography) on a reversed-phase column (C18) using the following methods: ^[a] […] Calibration was carried out using a homologous series of straight-chain alkan-2-ones (having 3 to 16 carbon atoms) with known log P values. The values between successive alkanones are determined by linear regression.

[4] = system: Ctenocephalides felis; assay: Ctenocephalides felis oral test; type: in vivo; settings: adult cat fleas, oral via citrated cattle blood, 100 ppm, after 2 days
Experimental: Ctenocephalides felis—Oral Test
Solvent: dimethyl sulfoxide
To produce a suitable active compound formulation, 10 mg of active compound are mixed with 0.5 ml of dimethyl sulfoxide. Dilution with citrated cattle blood gives the desired concentration.
About 20 unfed adult cat fleas (Ctenocephalides felis) are placed into a chamber which is closed at the top and bottom with gauze. A metal cylinder whose bottom end is closed with parafilm is placed onto the chamber. The cylinder contains the blood/active compound formulation, which can be imbibed by the fleas through the parafilm membrane.
After 2 days, the kill in % is determined. 100% means that all of the fleas have been killed; 0% means that none of the fleas have been killed.

[5] = system: Myzus persicae; assay: Myzus persicae spray test; type: in vivo; settings: Chinese cabbage leaf discs, all stages, 100 g/ha, after 5 days
Experimental: Myzus persicae—Spray Test Solvent: 78 parts by weight of acetone • • 1.5 parts by weight of dimethylformamide Emulsifier: alkylaryl polyglycol ether To produce a suitable active compound preparation, 1 part by weight of active compound is dissolved using the stated parts by weight of solvent and made up with water containing an emulsifier concentration of 1000 ppm until the desired concentration is attained. To produce further test concentrations, the formulation is diluted with emulsifier-containing water. Discs of Chinese cabbage leaves (Brassica pekinensis) infested by all stages of the green peach aphid (Myzus persicae) are sprayed with an active compound formulation of the desired concentration. After 5 days, the efficacy in % is determined. 100% means that all the aphids have been killed; 0% means that no aphids have been killed.

[6] = system: Spodoptera frugiperda; assay: Spodoptera frugiperda spray test; type: in vivo; settings: caterpillars on maize leaf discs, 100 g/ha, after 7 days
Experimental: Spodoptera frugiperda—Spray Test Solvent: 78.0 parts by weight of acetone • • 1.5 parts by weight of dimethylformamide Emulsifier: alkylaryl polyglycol ether To produce a suitable active compound preparation, 1 part by weight of active compound is dissolved using the stated parts by weight of solvent and made up with water containing an emulsifier concentration of 1000 ppm until the desired concentration is attained. To produce further test concentrations, the formulation is diluted with emulsifier-containing water. Leaf discs of maize (Zea mays) are sprayed with an active compound formulation of the desired concentration and, after drying, populated with caterpillars of the fall armyworm (Spodoptera frugiperda). After 7 days, the efficacy in % is determined. 100% means that all the caterpillars have been killed; 0% means that no caterpillar has been killed.

[7] = system: Diabrotica balteata; assay: Diabrotica balteata spray test; type: in vivo; settings: beetle larvae on germinated wheat grains, 160 μg/cavity, after 7 days
Experimental: Diabrotica balteata—Spray Test Solvent: 78 parts by weight of acetone • • 1.5 parts by weight of dimethylformamide Emulsifier: alkylaryl polyglycol ether To produce a suitable active compound preparation, 1 part by weight of active compound is dissolved using the stated parts by weight of solvent and made up with water containing an emulsifier concentration of 1000 ppm until the desired concentration is attained. To produce further test concentrations, the formulation is diluted with emulsifier-containing water. Pre-swollen wheat grains (Triticum aestivum) are incubated in a multiwell plate filled with agar and a little water for one day (5 seed grains per cavity). The germinated wheat grains are sprayed with an active compound preparation of the desired concentration. Subsequently, each cavity is infected with 10-20 beetle larvae of Diabrotica balteata. After 7 days, the efficacy in % is determined. 100% means that all wheat plants have grown as in the untreated, uninfected control; 0% means that no wheat plant has grown.

CCS(=O)(=O)c1c(-c2nc3cc(C(F)(F)F)n(C)c(=O)c3n2C)nn2cc(C3(C#N)CC3)ccc12 [Example I-01]
nematicidal efficacy (formation of galls) [1]: 100% | efficacy [2]: 100% | chromatographic logP [3]: 2.8 | efficacy (kill in %) [4]: 97%

CCS(=O)(=O)c1c(-c2nc3cc(C(F)(F)F)n(C)c(=O)c3n2C)nn2cc(C3CC3)ccc12 [Example I-03]
efficacy [5]: 90% | efficacy [2]: 100% | efficacy [6]: 100% | efficacy [7]: 100%

N#CC1(c2ccc3c(Br)c(C(=O)O)nn3c2)CC1 [3-Bromo-6-(1-cyanocyclopropyl)pyrazolo[1,5-a]pyridine-2-carboxylic Acid]
chromatographic logP [3]: 1.55

CCS(=O)(=O)c1c(-c2nc3cc(C(F)(F)F)n(C)c(=O)c3n2C)nn2cc(CC#N)ccc12 [Example I-02]
efficacy [2]: 100% | efficacy [6]: 100%

Cn1c(C(F)(F)F)cc2nc(-c3nn4cc(C5(C#N)CC5)ccc4c3Br)n(C)c2c1=O
chromatographic logP [3]: 3.37
